Laboratory results published in article PMC3951249 (Bioorganic & medicinal chemistry letters, 2014).

Tests used:
[1] = target: T1, GlyT1 (Homo sapiens, UniProt P48067); assay: GlyT1 inhibition, [14C]-glycine uptake assay; type: cell-based; conditions: for loss in GlyT1 potency relative to piperidine analog: 4a vs 2, 4b vs 1
T1 sequence (P48067 1-706): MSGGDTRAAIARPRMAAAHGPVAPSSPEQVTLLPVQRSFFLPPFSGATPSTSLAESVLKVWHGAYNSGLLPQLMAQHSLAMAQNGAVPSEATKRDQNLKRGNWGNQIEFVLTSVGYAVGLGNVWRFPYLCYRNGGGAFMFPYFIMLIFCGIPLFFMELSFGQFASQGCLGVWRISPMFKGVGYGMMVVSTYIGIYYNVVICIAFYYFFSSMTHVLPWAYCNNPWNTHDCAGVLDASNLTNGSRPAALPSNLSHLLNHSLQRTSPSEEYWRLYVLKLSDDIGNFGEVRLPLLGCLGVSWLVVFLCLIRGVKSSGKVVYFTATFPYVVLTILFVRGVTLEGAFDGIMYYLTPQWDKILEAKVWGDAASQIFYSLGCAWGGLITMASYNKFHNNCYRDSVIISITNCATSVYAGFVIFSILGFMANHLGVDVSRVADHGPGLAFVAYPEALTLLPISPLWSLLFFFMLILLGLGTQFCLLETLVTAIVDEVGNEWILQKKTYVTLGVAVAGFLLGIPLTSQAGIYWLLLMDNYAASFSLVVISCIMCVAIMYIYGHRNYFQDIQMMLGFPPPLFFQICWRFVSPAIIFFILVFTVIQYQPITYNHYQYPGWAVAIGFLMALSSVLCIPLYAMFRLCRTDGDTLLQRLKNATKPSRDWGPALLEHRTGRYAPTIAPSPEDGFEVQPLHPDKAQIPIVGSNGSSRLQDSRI

[2] = system: CYP (isoforms not named); assay: CYP profile; type: in vitro ADME
[3] = target: CYP3A4 (Homo sapiens, UniProt P08684); assay: CYP inhibition; type: in vitro ADME
CYP3A4, sequence (P08684 whole entry): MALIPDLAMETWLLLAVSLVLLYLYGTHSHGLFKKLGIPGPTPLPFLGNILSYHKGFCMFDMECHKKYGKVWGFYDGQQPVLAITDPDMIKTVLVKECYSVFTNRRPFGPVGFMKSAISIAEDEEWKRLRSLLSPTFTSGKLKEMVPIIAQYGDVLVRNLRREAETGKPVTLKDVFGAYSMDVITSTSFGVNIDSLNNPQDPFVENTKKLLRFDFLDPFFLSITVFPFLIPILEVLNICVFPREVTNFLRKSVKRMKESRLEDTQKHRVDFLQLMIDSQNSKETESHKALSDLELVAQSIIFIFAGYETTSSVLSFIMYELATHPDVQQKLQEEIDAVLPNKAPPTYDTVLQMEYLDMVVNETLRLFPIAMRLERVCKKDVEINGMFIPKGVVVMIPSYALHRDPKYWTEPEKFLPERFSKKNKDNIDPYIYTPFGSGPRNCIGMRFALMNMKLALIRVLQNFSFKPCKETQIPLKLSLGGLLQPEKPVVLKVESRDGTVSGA

[4] = in vitro intrinsic clearance, rat; type: in vitro ADME; conditions: from in vitro intrinsic clearance
[5] = in vitro intrinsic clearance, human; type: in vitro ADME; conditions: from in vitro intrinsic clearance
[6] = target: T2, GlyT2 (Homo sapiens, UniProt Q9Y345); assay: GlyT2 inhibition; type: cell-based
T2 sequence (Q9Y345 1-797): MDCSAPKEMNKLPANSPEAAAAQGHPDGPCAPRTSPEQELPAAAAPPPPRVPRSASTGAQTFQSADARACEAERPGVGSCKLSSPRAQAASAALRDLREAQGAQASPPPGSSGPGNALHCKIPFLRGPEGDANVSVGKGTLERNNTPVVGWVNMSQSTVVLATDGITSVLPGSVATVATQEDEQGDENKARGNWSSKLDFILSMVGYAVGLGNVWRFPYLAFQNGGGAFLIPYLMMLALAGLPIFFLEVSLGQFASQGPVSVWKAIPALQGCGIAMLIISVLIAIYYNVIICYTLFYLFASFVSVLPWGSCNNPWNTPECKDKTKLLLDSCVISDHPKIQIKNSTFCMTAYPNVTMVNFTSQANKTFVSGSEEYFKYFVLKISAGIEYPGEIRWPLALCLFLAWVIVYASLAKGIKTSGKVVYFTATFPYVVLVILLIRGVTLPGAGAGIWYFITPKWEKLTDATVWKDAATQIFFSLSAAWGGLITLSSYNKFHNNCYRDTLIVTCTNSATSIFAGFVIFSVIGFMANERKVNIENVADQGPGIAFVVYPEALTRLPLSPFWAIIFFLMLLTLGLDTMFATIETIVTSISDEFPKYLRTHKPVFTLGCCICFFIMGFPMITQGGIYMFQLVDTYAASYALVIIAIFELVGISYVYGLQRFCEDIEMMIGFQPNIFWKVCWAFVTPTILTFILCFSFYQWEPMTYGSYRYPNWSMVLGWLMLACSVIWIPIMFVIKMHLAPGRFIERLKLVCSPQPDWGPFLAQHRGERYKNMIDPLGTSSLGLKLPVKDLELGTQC

[7] = brain tissue distribution study; type: in vivo; conditions: rat
[8] = stability in rat plasma; type: in vitro ADME; conditions: 4 hours at 37 °C
[9] = system: 68 GPCRs, ion channels and transporters; assay: Eurofin Lead Profiling panel of radioligand binding assays; conditions: @10 μM, 68 targets
[10] = fraction unbound in human plasma; type: in vitro ADME; conditions: fu (hum)
[11] = system: prepulse inhibition (PPI) of the rodent acoustic startle response; assay: prepulse inhibition; type: in vivo; conditions: rat, 30 mg/kg p.o.
[12] = target: T1, GlyT1; conditions: ref 13-15 (1 and 2), ref 5-8 (NFPS); cited from earlier work
[13] = data reported for Merck's 2; cited from earlier work
[14] = data reported for Merck's 2; cited from earlier work; remark: listed apart in the source
[15] = target: T1, GlyT1; conditions: 30 mg/kg oral; cited from earlier work

SMILES: CCCS(=O)(=O)N1C[C@@H]2[C@H](C1)[C@@]2(CNC(=O)c1ccc(Cl)cc1Cl)CC1CC1 [Compound 4b]
- loss in GlyT1 potency relative to piperidine analog [1]: ~ 150 fold

SMILES: CCS(=O)(=O)N1C[C@@H]2[C@H](C1)[C@@]2(CNC(=O)c1ccc(Cl)cc1Cl)CC1CC1 [Compound 4a]
- loss in GlyT1 potency relative to piperidine analog [1]: 50 fold

SMILES: Cn1cnc(S(=O)(=O)N2C[C@@H]3[C@H](C2)[C@@]3(CNC(=O)c2ccc(Cl)cc2Cl)c2ccccn2)c1 [Compound 10]
- IC50 [2]: > 30 µM

SMILES: Cn1cnc(S(=O)(=O)N2C[C@@H]3[C@H](C2)[C@@]3(CNC(=O)c2ccccc2C(F)(F)F)CC2CC2)c1 [Compound 12d]
- IC50 [3]: 14.9 µM
- predicted hepatic clearance ClHEP [4]: 43.0 mL/min/kg
- predicted hepatic clearance ClHEP [5]: 17.7 mL/min/kg
- IC50 [6]: > 30 µM
- brain AUC0-6hr ([7]; 10 mg/kg p.o. in 0.5% methocellulose): 0.956 µM·h
- brain AUC0-6hr ([7]; 10 mg/kg s.c. in 10% tween 80): 0.431 µM·h
- stability in rat plasma [8]: stable
- inhibition against any target in the panel [9]: ≤ 50%
- fraction unbound [10]: 0.068
- effect on basal startle amplitude during no-stimulus trials [11]: no effect

SMILES: CCCS(=O)(=O)N1CCC(c2ccccc2)([C@H](C)NC(=O)c2ccc(Cl)cc2Cl)CC1 [Compound 1]
- known mechanism of action with respect to glycine [12]: competitive

SMILES: CCS(=O)(=O)N1CCC(CNC(=O)c2ccc(Cl)cc2Cl)(CC2CC2)CC1 [Compound 2]
- clearance in rat [13]: moderate to high clearance
- clearance in dog [14]: low clearance
- known mechanism of action with respect to glycine [12]: competitive
- occupancy [15]: > 90%
- effect on basal startle amplitude during no-stimulus trials [11]: no effect

SMILES: Cn1cnc(S(=O)(=O)N2C[C@@H]3[C@H](C2)[C@@]3(CNC(=O)c2c(Cl)cccc2Cl)CC2CC2)c1 [Compound 12c]
- mechanism of inhibition with respect to glycine (Eadie-Hoffstee plot) ([1]; [14C]-glycine transport, 40 nM 12c): competitive

SMILES: Cn1cnc(S(=O)(=O)N2C[C@@H]3[C@H](C2)[C@@]3(CNC(=O)c2ccccc2C(F)(F)F)c2ccccn2)c1 [Compound 11]
- IC50 [2]: > 30 µM
